Entries after “also recorded” stand apart in the source; their conditions may differ.
How the values were obtained:
A375R cells = assay: Long-term colony formation assay, vemurafenib-resistant A375R cells; conditions: for sensitivity of cells in proliferation assay, HDACi panel: Vorinostat 1 uM, 01994 4 uM, AR2 0.5 uM, Pracinostat 0.25 uM, Quisinostat 25 nM, 8 day
Method: Long-term colony formation assay of melanoma (A375 and A375R clone) cells. […] Cells were fixed and stained at day 12. […] Long-term colony formation assay of melanoma Mel888 parental and vemurafenib-resistant Mel888R cells (three different clones Mel888RC-A, B and C) were seeded at the same cell density in 6-well plates and cultured in presence of vorinostat (1 microM) and/or vemurafenib (2 microM). Cells were fixed and stained at day 10. […] Long-term colony formation assay of melanoma A375 parental and double-resistant cells seeded in 12-well plates and treated with 2 microM vemurafenib and/or 0.5 microM CDX101 (CDX). Medium and drugs were refreshed every 2-3 days. Cells were fixed and stained on day 10.
Medium and drugs were refreshed every 2-3 days. Cells were fixed and stained on day 10
Long-term colony formation assay of A375 parental and MAPKi resistant A375R, A375DR cells treated sulfasalazine and vorinostat. Medium and drugs were refreshed every 2-3 days. Cells were fixed and stained on day 10.
The A375 melanoma cell line was obtained from ATCC. MEL888 were gifts from D. Peeper (Amsterdam, The Netherlands). WM266-4 and Colo741 cell line were provided by R. Marais (Manchester, UK). These cells are BRAF mutated melanoma. All the cell lines were cultured in DMEM medium supplemented with 10% FBS, 1% penicillin/streptomycin and 2 mM I-glutamine. Vemurafenib-resistant A375 and MEL888 cells were generated by long term (at least 3 months) culturing with 2 microM vemurafenib. Dabrafenib-Trametinib combination resistant A375 cells were generated by long term (at least 3 months) culturing with 0.25 microM Dabrafenib and 10 nM Trametinib (MEK inhibitor). Vemurafenib-resistant ex-vivo clones were isolated from immunodeficient BalbC mice, which were long-term treated with PLX4720-chow (50 mg/kg). All the in vitro cell lines have been STR profiled.
Cells were seeded into 6-well plates (5*10^4˜1*10^5 cells per well) or 12-well plates (4*10^4 cells per well) and cultured both in the absence and presence of drugs as indicated.

A375 melanoma cells [1] = assay: Long-term colony formation assay, A375 cells; type: cell-based, human; conditions: for effect of HDACi on the anti-proliferative effect of vemurafenib: HDACi together with vemurafenib; for proliferation in long-term colony formation assay: drug(s) without HDACi/BRAFi partner; for effect of HDACi on dabrafenib, trametinib and their combination: FIG. 3
Text: (§1) FIG. 1. BRAF inhibition is antagonized by HDAC inhibition in melanoma. A). […] The cells were fixed and stained at day 14. B). Short-term proliferation assay of melanoma (A375) cells. […] Error bars represent s.d. of biological triplicates. C,D). HDAC inhibitors and vemurafenib have antagonistic effects on MAPK pathway and HDAC inhibitors can rescue cells from vemurafenib-induced apoptosis. A375 were pre-treated with 1 microM vorinostat and 1 microM entinostat for 48 hrs and then treated with the combination of HDAC inhibitor (1 microM) and vemurafenib (1 microM) for additional 24 hrs. The levels of p-RB, p-MEK, MEK, cleaved PARP (cl. PARP) and ac-H3 were detected by western blot. β-actin served as the loading control.
(§2) FIG. 2. Other HDACi also confer resistance to vemurafenib. […] B).
(§3) FIG. 3. HDACi confers resistance to the combination of a MEK and a BRAF inhibitor in melanoma. A,B,C).

[2] = test system: MEL888RC-A, B and C cells; assay: Long-term colony formation assay, vemurafenib-resistant MEL888 clones; type: cell-based; conditions: vorinostat 1 microM, CXD101 0.5 microM
Text: FIG. 5. […] Cells were fixed and stained on day 8.
(§4) These cells are BRAF mutated melanoma.

A375DR cells = assay: Long-term colony formation assay, dabrafenib/trametinib double-resistant A375DR cells; type: cell-based, human
Text: as §4

[3] = test system: NRAS-mutant melanoma patients; conditions: phase II; cited from earlier work
SK-MEL-147R cells = assay: Long-term colony formation assay, MEKi-resistant SK-MEL-147R cells; type: cell-based, human
Method: (a). Long-term colony formation assay of SK-MEL-147 and MEKi-resistant SK-MEL-147R cells cultured in the presence of 1 μM vorinostat and/or 100 nM Trametinib.
(b). Long-term colony formation assay of SK-MEL-147 and SK-MEL-147R cells cultured in the presence of indicated concentrations of vorinostat and/or 5 mM NAC.
(§5) The A375, SK-Mel-147 and SK-Mel-2 melanoma cell lines were obtained from ATCC. […] Trametinib resistant SK-mel-147 and SK-mel-2 were generated by long term culturing with 25 nM (first month), 50 nM (second month) and 100 nM (third month) trametinib.
(§6) For full details, see ref. (Huang et al., 2009).

SK-MEL-2R cells = assay: Long-term colony formation assay, MEKi-resistant SK-MEL-2R cells; type: cell-based, human; conditions: 5 mM NAC
Method: (i). Long-term colony formation assay of SK-MEL-2 and MEKi-resistant SK-MEL-2R cells cultured in the presence of 1 μM vorinostat and/or 100 nM Trametinib.
(j) Long-term colony formation assay of SK-MEL-2 and SK-MEL-2R cells cultured in the presence of indicated concentrations of vorinostat and/or 5 mM NAC.
as §5, §6

[4] = test system: A375 melanoma tumor xenografts; assay: A375 mouse xenografts; type: in vivo, BalbC immunodeficient nude mice; conditions: for tumor volume of PLX4720-resistant tumors after randomization: PLX4720 300 mg/kg in chow and/or vorinostat 100 mg/kg i.p.
Method: FIG. 7. HDACi is effective in treatment of BRAF inhibitor resistant melanoma in vivo. A,B). […] A375 melanoma cells were grown as tumor xenografts in BalbC immunodeficient nude mice. After tumor establishment (150-200 mm3), mice were treated with (A). vehicle, PLX4720 (40 mg/kg supplemented in the chow). Upon development of BRAF inhibitor resistance, mice receiving PLX4720 were randomized in four arms (B) receiving: vehicle, PLX4720 (300 mg/kg supplemented in the chow), Vorinostat (100 mg/kg i.p.) or PLX4720 (300 mg/kg supplemented in the chow) plus Vorinostat (100 mg/kg i.p.). C). Resistance to vemurafenib in A375 cells is mediated through reactivation of MAP kinase pathway. Biochemical responses of A375-resistant ex vivo clones and A375 parental cell line treated with 2 microM vemurafenib were documented by western blot analysis. Cells were harvested at 24 hrs after drug treatment. […] HSP90 served as the loading control. […].
A375 melanoma cells (2×10^6 cells per mouse) were injected subcutaneously into the right posterior flanks of 7-week-old immunodeficient BalbC or NMRI nude female mice (6 mice per group; Janvier Laboratories, The Netherlands). Tumor formation was monitored twice a week, and tumor volume based on caliper measurements was calculated by the modified ellipsoidal formula (tumor volume=½(length×width2)). When tumors reached a volume of approximately 0.3 cm^3, mice were randomized into treatment arms. PLX4720 (Plexxikon) was formulated in the chow by Research Diets dosed at 300 mg/kg and vorinostat was formulated in DMSO/saline solution, and it was dosed at 100 mg per kg daily by intraperitoneal injection. When resistance to PLX4720 arises in the group treated with PLX4720, mice bearing tumors of approximately 0.3 cm^3 were again randomized into the treatment arms with the same drug dosages. Animal experiments were approved by the Animal Ethics Committee of the Netherlands Cancer Institute and performed in accordance with institutional, national and European guidelines for Animal Care and Use.
To investigate whether HDACi treatment is a suitable therapy for MPAK pathway inhibitor resistant melanoma, e.g. BRAF inhibitor resistant melanoma, we injected parental vemurafenib sensitive A375 cells into a cohort of 24 BalbC immunodeficient nude mice. After tumors had reached an average volume of 150-200 mm3, we started treatment with vemurafenib by feeding the animals chow supplemented with 40 mg/kg of PLX4720. […] After that period, tumors began to increase in size, indicative of the development of drug resistance (FIG. 7A). When drug resistant tumors in the mice had reached a size of 800 mm3, mice were randomized to four cohorts that were treated either with:
A) no drug; B) PLX4270; C) PLX4270 and vorinostat; D) Vorinostat.

[5] = test system: 4397A, 4397B, 4393R and 4393L cells; assay: Long-term colony formation assay, ex vivo PLX4720-resistant A375 clones; type: cell-based, human; conditions: four cell lines with in vivo acquired PLX4720 resistance
Text: FIG. 8. In vitro and ex vivo BRAF inhibitor-resistant clones are hypersensitive to HDACi.
We explanted four PLX4720 resistant tumors from mice immediately after acquisition of PLX4720 resistance in vivo and continued to culture these cells in vitro in the presence of BRAF inhibitor. These cells were designated 4397A, 4397B, 4393R and 4393L.

Colo741 melanoma cells = assay: Long-term colony formation assay, Colo741 cells; type: cell-based; conditions: for effect of HDACi on dabrafenib, trametinib and their combination: FIG. 3
Text: as §2, §3

p-MEK in A375 cells = assay: Western blot of MAPK pathway and apoptosis markers, A375 cells; type: cell-based, human; conditions: single drug
Text: as §1
FIG. 7. HDACi is effective in treatment of BRAF inhibitor resistant melanoma in vivo. A,B). […] A375 melanoma cells were grown as tumor xenografts in BalbC immunodeficient nude mice. After tumor establishment (150-200 mm3), mice were treated with (A). vehicle, PLX4720 (40 mg/kg supplemented in the chow). Upon development of BRAF inhibitor resistance, mice receiving PLX4720 were randomized in four arms (B) receiving: vehicle, PLX4720 (300 mg/kg supplemented in the chow), Vorinostat (100 mg/kg i.p.) or PLX4720 (300 mg/kg supplemented in the chow) plus Vorinostat (100 mg/kg i.p.). C). Resistance to vemurafenib in A375 cells is mediated through reactivation of MAP kinase pathway. […]

A375 melanoma cells [6] = assay: Short-term proliferation assay (IncuCyte), A375 cells; type: cell-based, human; conditions: each drug alone, 1 microM
Text: as §1

A375 cells = assay: Staining of beta-galactosidase activity; type: cell-based, human
Text: β-galactosidase activity in cells was detected using Histochemical Staining Kit (CS0030-1KT) from Sigma-Aldrich. The detection was applied according to the manufacturer's instructions.

[7] = test system: p-MEK in WM2664 melanoma cells; assay: Western blot of p-MEK, WM2664 cells; type: cell-based; conditions: single drug
Method: Cells were seeded in medium containing 10% fetal bovine serum (FBS) for indicated time, and then washed with PBS and lysed with RIPA buffer supplemented with protease inhibitor (cOmplete, Roche) and Phosphatase Inhibitor Cocktails II and III (Sigma). All lysates were freshly prepared and processed with Novex NuPAGE Gel Electrophoresis Systems (Invitrogen).

XCT (SLC7A11) mRNA = assay: qRT-PCR of SLC7A11 in SK-MEL-147 and SK-MEL-147R cells; conditions: 72 hours vorinostat treatment
Method: The relative mRNA levels were detected by qRT-PCR analysis after 72 hours vorinostat treatment. Error bars represent s.d. of measurement replicates (n=3, *** p<0.001, Student's t-test).
RNA isolation from cell lines harvested with TRIzol reagent (Invitrogen) according to the manufacturer's instruction. cDNA synthesis was performed with Maxima Universal First Strand cDNA Synthesis Kit (# K1661, Thermo scientific) according to manufacturer's instruction.

CC(C)[C@H](C(=O)Nc1ccc(C(=O)NO)cc1)c1ccccc1 [AR2]
sensitivity of cells in proliferation assay, HDACi panel (A375R cells; A375R cells): very sensitive

Cc1nn(C)cc1CN1CCC(c2ccc(C(=O)Nc3ccccc3N)cc2)CC1 [CXD101]
effect of HDACi on the anti-proliferative effect of vemurafenib (A375 melanoma cells [1]): conferred resistance to vemurafenib
proliferation in long-term colony formation assay (A375 melanoma cells [1]): mildly anti-proliferative
sensitivity of cells in long-term colony formation assay [2]: hypersensitive
sensitivity of cells in long-term colony formation assay (A375DR cells; 0.5 microM CDX101): very sensitive
sensitivity of cells in long-term colony formation assay (A375DR cells; 0.5 microM CDX101, listed as CDX101): hypersensitive

Cn1cnc2c(F)c(Nc3ccc(Br)cc3F)c(C(=O)NOCCO)cc21 [MEK162]
patients with objective responses [3]: 20%
patients with stable disease [3]: 43%

CC(=O)N[C@@H](CS)C(=O)O [NAC, N-acetyl-L-cysteine]
effect on the toxic effect of vorinostat (SK-MEL-147R cells; SK-MEL-147R cells, 5 mM NAC): rescued
effect on the toxic effects of vorinostat (SK-MEL-2R cells): countered, at least in part

CCCS(=O)(=O)Nc1ccc(F)c(C(=O)c2c[nH]c3ncc(Cl)cc23)c1F [PLX4720]
tumor volume of PLX4720-resistant tumors after randomization [4]: continued tumor volume increase
period of tumor growth suppression before resistance ([4]; chow supplemented with 40 mg/kg of PLX4720): around 3 months
tumor growth ([4]; chow supplemented with 40 mg/kg of PLX4720, start at 150-200 mm3): significant suppression of tumor growth

CCCCc1nc2cc(/C=C/C(=O)NO)ccc2n1CCN(CC)CC [Pracinostat]
sensitivity of cells in proliferation assay, HDACi panel (A375R cells; A375R cells): very sensitive

Cn1cc(CNCC2CCN(c3ncc(C(=O)NO)cn3)CC2)c2ccccc21 [Quisinostat]
sensitivity of cells in proliferation assay, HDACi panel (A375R cells; A375R cells): very sensitive

O=C(/C=C/c1cccc(S(=O)(=O)Nc2ccccc2)c1)NO [belinostat]
effect of HDACi on the anti-proliferative effect of vemurafenib (A375 melanoma cells [1]): conferred resistance to vemurafenib
proliferation in long-term colony formation assay (A375 melanoma cells [1]): mildly anti-proliferative
sensitivity of cells to HDACi [5]: very sensitive

CC(C)(C)c1nc(-c2cccc(NS(=O)(=O)c3c(F)cccc3F)c2F)c(-c2ccnc(N)n2)s1 [dabrafenib]
proliferation in long-term colony formation assay (A375 melanoma cells [1]): effective in limiting proliferation
proliferation in long-term colony formation assay (Colo741 melanoma cells; MAPK pathway inhibitor(s) without HDACi): effective in limiting proliferation

Nc1ccccc1NC(=O)c1ccc(CNC(=O)OCc2cccnc2)cc1 [entinostat]
effect of HDACi on dabrafenib, trametinib and their combination (A375 melanoma cells [1]): able to confer resistance to these drugs
p-MEK levels (p-MEK in A375 cells): increases p-MEK levels
effect of HDACi on dabrafenib, trametinib and their combination (Colo741 melanoma cells): able to confer resistance to these drugs
sensitivity of cells in long-term colony formation assay [2]: hypersensitive

O=C(O)c1cc(/N=N/c2ccc(S(=O)(=O)Nc3ccccn3)cc2)ccc1O [sulfasalazine]
toxicity in long-term colony formation assay (A375DR cells; sulfasalazine 0.2 to 0.4 mM): toxic
toxicity in long-term colony formation assay (A375R cells; A375R cells, sulfasalazine 0.2 to 0.4 mM): toxic

O=C(CCCCCCC(=O)Nc1ccccc1)NO [vorinostat]
effect of HDACi on dabrafenib, trametinib and their combination (A375 melanoma cells [1]): able to confer resistance to these drugs
effect of HDACi on the anti-proliferative effect of vemurafenib (A375 melanoma cells [1]): almost completely negated the anti-proliferative effects of vemurafenib
proliferation in long-term colony formation assay (A375 melanoma cells [1]): inhibition of proliferation
cell proliferation (cell confluence, IncuCyte) (A375 melanoma cells [6]): restricted cell proliferation
acidic beta-galactosidase (senescence marker) (A375 cells): induction of acidic beta-galactosidase
p-MEK levels [7]: increase in phospho-MEK (p-MEK)
effect of HDACi on dabrafenib, trametinib and their combination (Colo741 melanoma cells): able to confer resistance to these drugs
effect of HDACi on the anti-proliferative effect of vemurafenib (Colo741 melanoma cells; HDACi together with vemurafenib): conferred resistance to vemurafenib
tumor volume of PLX4720-resistant tumors after randomization [4]: rapid decline in tumor volume; also recorded: complete disappearance of the tumors after two months; also recorded: suppress melanoma growth
sensitivity of cells to HDACi [5]: very sensitive
sensitivity of cells in long-term colony formation assay (SK-MEL-147R cells; SK-MEL-147R versus parental SK-MEL-147, 1 μM vorinostat, 100 nM Trametinib): acquired significant sensitivity
XCT (SLC7A11) mRNA expression (XCT (SLC7A11) mRNA): reduced XCT (also known as SLC7A11) mRNA expression; also recorded: suppressed SLC7A11 expression
sensitivity of cells in long-term colony formation assay (A375R cells; A375R cells versus parental A375, vorinostat 1 microM, vemurafenib 2 microM): far more sensitive to vorinostat than parental A375 cells; also recorded: massive inhibition of proliferation; also recorded: hypersensitive
sensitivity of cells in proliferation assay, HDACi panel (A375R cells; A375R cells): very sensitive
